In patent publication US20070135499A1 (Aerie Pharmaceuticals, Inc., priority 2005, published 2007) one finds Ki data, which are given here for 20 molecules.

Test [1] addresses T1, hGRK-2 (Homo sapiens, UniProt P25098).
T1 sequence (P25098 1-689): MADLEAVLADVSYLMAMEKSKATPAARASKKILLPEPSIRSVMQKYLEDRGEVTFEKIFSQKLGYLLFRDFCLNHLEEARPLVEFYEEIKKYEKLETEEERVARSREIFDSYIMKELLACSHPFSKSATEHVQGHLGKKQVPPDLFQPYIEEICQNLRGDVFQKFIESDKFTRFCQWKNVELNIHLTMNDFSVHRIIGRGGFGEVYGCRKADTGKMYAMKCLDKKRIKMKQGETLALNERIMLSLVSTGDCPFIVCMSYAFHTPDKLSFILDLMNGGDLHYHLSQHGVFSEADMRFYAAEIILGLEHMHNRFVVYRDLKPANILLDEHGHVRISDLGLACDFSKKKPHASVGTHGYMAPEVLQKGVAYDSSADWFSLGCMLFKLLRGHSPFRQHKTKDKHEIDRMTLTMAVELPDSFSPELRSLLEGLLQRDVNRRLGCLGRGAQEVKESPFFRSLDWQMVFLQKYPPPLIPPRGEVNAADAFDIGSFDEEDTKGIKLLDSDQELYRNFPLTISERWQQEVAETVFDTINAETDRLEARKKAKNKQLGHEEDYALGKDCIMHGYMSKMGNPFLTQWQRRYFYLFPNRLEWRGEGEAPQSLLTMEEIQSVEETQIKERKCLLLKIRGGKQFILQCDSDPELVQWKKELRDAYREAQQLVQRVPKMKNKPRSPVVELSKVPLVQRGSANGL
As to the kind of experiment: luciferase-based (Kinase-Glo) biochemical kinase inhibition assay, hGRK-2. As to conditions: luciferase assay, casein substrate, 10 μM ATP; read-out: GRK-2 inhibition, Ki class. On the procedure: (§1) The inhibition of G-protein-coupled receptor kinases including hGRK-2 was determined for the hydrazide compounds using a biochemical assay. The inhibition of GRK-3, GRK-5 and GRK-6 was also determined using the same assay for some of the hydrazide derivatives.
(§2) The protein kinase inhibition was determined using a biochemical assay utilizing the light emission of a luciferase reaction. The luciferase-based assay operates on the following reaction principles: [drawing 10]
(§3) An inhibitor of GRK-2 will increase in the amount of ATP in solution, as shown. Thus, an inhibitor of GRK-2 will drive the luciferase reaction to the right, resulting in more light emitted. The amount of light emitted is proportional to the inhibition resulting from the GRK-2 inhibitor. The luciferase-based assay was also used to test some of the hydrazides for the inhibition properties towards other kinases.
The test procedure was as follows:
• 50 mM HEPES, pH 7.5 • 10 mM MgCl2 • 100 μM activated sodium orthovanadate • 0.01% CHAPS • 0.1% BSA • 1 mM DTT (added fresh daily) 10× Assay Buffer Stock: • 500 mM HEPES, pH 7.5 • 100 mM MgCl2 • 1 mM activated sodium orthovanadate • 0.1% CHAPS • 1% BSA (leave out for 10× compound dilution buffer) Final Assay Conditions: • 50 μM test compound • 20 μM casein • 10 μM ATP • 50 nM hGRK2 • 4.5% DMSO • 90-120 minute incubation
Stopped by addition of 30 μl 3×-diluted Kinase-Glo reagent containing 0.01% trypan blue. Counted on FUSION plate reader.
Compound Dilution and Transfer
Prepare sufficient buffer containing 40% DMSO to add 20 μl/well to the number of plates being assayed. This buffer should not contain BSA because it will precipitate with addition of 40% DMSO. (EXAMPLE: To make 3000 ml compound dilution buffer: 1200 ml DMSO, 180 ml 10× compound dilution buffer, 1615 ml ultrapure water, 3 ml 1M DTT.).
Using Multidrop, add 20 μl of compound dilution buffer to all wells of the 384-well daughter plate (add 1 μl DMSO to control wells). This will result in a daughter plate which contains 21 μl of ˜500 μM test compound.
Using the PlateTrak, transfer 5 μl of the test compounds to a 384-well, non-binding, white microtiter plate.
Prepare sufficient volume of buffer (with BSA and 1 mM DTT) containing 125 nM GRK2 and 25 μM ATP. (Example: To 219 ml of buffer was added 550 μl 10 mM ATP and 350 μl 79 μM GRK2).
Using Multidrop, add 20 μl of GRK2/ATP mixture to all wells of the microtiter plate.
Prepare sufficient volume of buffer (with BSA and 1 mM DTT) containing 40 μM casein. (EXAMPLE: To 211 ml buffer add 8.8 ml 1 mM casein)
Using Multidrop, add 25 μl to columns 1 through 23 of the microtiter plate. Add 25 μl of complete buffer to column 24 (blanks).
Mix reaction gently by tapping (Multidrop addition of casein does a decent job of mixing), stack plates and incubate at room temperature for between 90 and 120 minutes. Assay progression can be tracked in a separate plate if desired. Target 20-30% ATP consumption. Try to avoid exceeding 40% consumption as kinetics might become non-linear due to substrate (ATP) depletion.
Addition of Kinase-Glo Reagents
The Kinase-Glo reagent can be diluted 3-fold with no loss of data quality in this assay. Additionally, since the library contains many colored compounds which will quench the light emitted from the well resulting in a false negative (kinase inhibitors result in less ATP consumption thus more light emitted), the entire reaction is subject to intentional quench to override this effect. This intentional quench is accomplished by the addition of 0.01% trypan blue to the Kinase-Glo reagents. (EXAMPLE: 100 ml 1× Kinase-Glo reagents (prepared according to product insert), 200 ml assay buffer, 7.5 ml 0.4% trypan blue.
Using Multidrop, add 30 μl to all wells of the assay plate.
Count on FUSION plate reader in luminescence mode.

Test [2] concerns the target T2, GRK-3 (Homo sapiens, UniProt P35626).
T2 sequence (P35626 1-688): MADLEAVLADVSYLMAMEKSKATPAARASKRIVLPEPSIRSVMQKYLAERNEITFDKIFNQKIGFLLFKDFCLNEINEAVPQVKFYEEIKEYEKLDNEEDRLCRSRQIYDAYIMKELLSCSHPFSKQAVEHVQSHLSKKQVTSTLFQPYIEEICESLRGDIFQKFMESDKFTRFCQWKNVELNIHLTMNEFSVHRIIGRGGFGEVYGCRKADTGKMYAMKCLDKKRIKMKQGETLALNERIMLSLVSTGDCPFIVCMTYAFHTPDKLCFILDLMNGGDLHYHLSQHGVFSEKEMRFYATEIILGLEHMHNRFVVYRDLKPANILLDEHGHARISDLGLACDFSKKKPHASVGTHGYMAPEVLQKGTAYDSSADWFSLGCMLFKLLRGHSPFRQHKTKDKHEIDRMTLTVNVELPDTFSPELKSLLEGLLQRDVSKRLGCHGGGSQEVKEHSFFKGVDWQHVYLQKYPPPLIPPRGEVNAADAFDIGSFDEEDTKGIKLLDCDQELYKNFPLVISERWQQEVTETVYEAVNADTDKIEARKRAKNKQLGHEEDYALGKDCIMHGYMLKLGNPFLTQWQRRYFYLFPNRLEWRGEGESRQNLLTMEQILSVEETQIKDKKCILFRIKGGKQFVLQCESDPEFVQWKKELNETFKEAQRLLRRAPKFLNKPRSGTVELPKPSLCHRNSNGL
The test is described as follows: luciferase-based biochemical kinase inhibition assay, GRK-3. As to conditions: same luciferase assay; read-out: GRK-3 inhibition, Ki class. The procedure:
as §1, §2, §3

The target of test [3] is GRK-5 (Homo sapiens, UniProt P34947). The test is described as follows: luciferase-based biochemical kinase inhibition assay, GRK-5. As to conditions: same luciferase assay; read-out: GRK-5 inhibition, Ki class. The procedure: The inhibition of G-protein-coupled receptor kinases including hGRK-2 was determined for the hydrazide compounds using a biochemical assay. […] The inhibition of GRK-3, GRK-5 and GRK-6 was also determined using the same assay for some of the hydrazide derivatives.
as §2, §3

Some results are limits rather than exact numbers.

Sequence of GRK-5 (P34947 whole entry, species assumed): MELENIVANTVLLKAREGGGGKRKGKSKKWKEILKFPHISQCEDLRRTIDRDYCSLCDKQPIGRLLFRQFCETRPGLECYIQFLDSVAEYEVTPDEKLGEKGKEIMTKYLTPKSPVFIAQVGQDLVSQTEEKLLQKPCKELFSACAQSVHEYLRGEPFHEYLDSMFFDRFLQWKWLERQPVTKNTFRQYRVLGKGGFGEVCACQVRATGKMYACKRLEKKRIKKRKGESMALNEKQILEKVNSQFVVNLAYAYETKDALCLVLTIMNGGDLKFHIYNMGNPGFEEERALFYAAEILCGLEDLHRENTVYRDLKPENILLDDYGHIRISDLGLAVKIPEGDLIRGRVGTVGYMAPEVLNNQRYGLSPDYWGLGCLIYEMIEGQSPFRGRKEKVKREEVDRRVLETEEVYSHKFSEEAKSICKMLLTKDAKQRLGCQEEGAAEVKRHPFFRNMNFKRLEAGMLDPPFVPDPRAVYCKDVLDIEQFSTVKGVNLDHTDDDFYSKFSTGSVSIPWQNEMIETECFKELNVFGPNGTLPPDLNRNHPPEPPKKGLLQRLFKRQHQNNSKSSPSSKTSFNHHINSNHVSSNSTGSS

What is called Ki is the dissociation constant of the complex between target and ligand, obtained from inhibition or displacement. In the case of `O=C(CNc1cccc(OCc2ccccc2)c1)N/N=C/c1ccncc1` [Example 47, (3-Benzyloxy-phenylamino)-acetic acid [1-pyridin-4-yl-meth-(E)-ylidene]-hydrazide], the figures for the inhibition constant (Ki) in test [1], in test [2] and in test [3] were 0.1 to 1 µM, 0.1 to 1 µM and 1 to 10 µM, respectively.

Consider `CSc1cccc(NCC(=O)N/N=C/c2ccncc2)c1` [Example 48, (3-Methylsulfanyl-phenylamino)-acetic acid [1-pyridin-4-yl-meth-(E)-ylidene]-hydrazide], for which the Ki in test [1] was 0.1 to 1 µM; in test [2] it was 0.1 to 1 µM; in test [3], greater than 10 µM.

As for `O=C(CNc1cccc(F)c1)N/N=C/c1ccncc1` [Example 40, (3-Fluoro-phenylamino)-acetic acid [1-pyridin-4-yl-meth-(E)-ylidene]-hydrazide], the inhibition constant Ki in test [1] is 0.1 to 1 µM; in test [2] it was 1 to 10 µM; in test [3], greater than 10 µM.

Consider `O=C(CNc1cccc(C(=O)Nc2ccccc2)c1)N/N=C/c1ccncc1` [Example 96, N-Phenyl-3-{[1-pyridin-4-yl-meth-(E)-ylidene-hydrazinocarbonylmethyl]-amino}-benzamide], for which the values for the Ki in test [1] and in test [2] were 0.1 to 1 µM and 0.01 to 0.1 µM, respectively.

On to `COc1ccccc1NCC(=O)N/N=C/c1ccncc1` [Example 67, (2-Methoxy-phenylamino)-acetic acid [1-pyridin-4-yl-meth-(E)-ylidene]-hydrazide], for which the Ki in test [1] was greater than 10 µM.

Turning to `CCc1ccccc1NCC(=O)N/N=C/c1c(Cl)cncc1Cl` [Example 26, (2-Ethyl-phenylamino)-acetic acid [1-(3,5-dichloro-pyridin-4-yl)-ylidene]-hydrazide], the Ki in test [1] was in the range of 1 to 10 µM.

Turning to `O=C(CNc1cccc(Br)c1)N/N=C/c1ccncc1` [Example 44, (3-Bromo-phenylamino)-acetic acid [1-pyridin-4-yl-meth-(E)-ylidene]-hydrazide], in test [1], the Ki was in the range of 0.1 to 1 µM.

Regarding `CCc1ccccc1NCC(=O)N/N=C/c1ccncc1` [Example 68, (2-Ethyl-phenylamino)-acetic acid [1-pyridin-4-yl-meth-(E)-ylidene]-hydrazide], the Ki in test [1] was greater than 10 µM.

`O=C(CNc1cccc(-n2cncn2)c1)N/N=C/c1c(Cl)cncc1Cl` [Example 31, (3-[1,2,4]Triazol-1-yl-phenylamino)-acetic acid [1-(3,5-dichloro-pyridin-4-yl)-meth-(E)-ylidene]-hydrazide]: the Ki in test [1] was greater than 10 µM.

Turning to `CC(C)c1cccc(NCC(=O)N/N=C/c2ccncc2)c1` [Example 61, (3-Isopropyl-phenylamino)-acetic acid [1-pyridin-4-yl-meth-(E)-ylidene]-hydrazide], the Ki in test [1] was greater than 10 µM.

For the molecule `O=C(CNc1cccc(-n2cccn2)c1)N/N=C/c1c(Cl)cncc1Cl` [Example 34], the Ki in test [1] is greater than 10 µM.

Consider `O=C(CNc1cccc(-n2cncn2)c1)N/N=C/c1ccncc1` [Example 78, (3-[1,2,4]Triazol-1-yl-phenylamino)-acetic acid [1-pyridin-4-yl-meth-(E)-ylidene]-hydrazide], for which the Ki in test [1] is greater than 10 µM.

Regarding `O=C(CNc1cccc(C(F)(F)F)c1)N/N=C/c1ccncc1` [Example 50, (3-Trifluoromethyl-phenylamino)-acetic acid [1-pyridin-4-yl-meth-(E)-ylidene]-hydrazide], in test [1], the Ki was in the range of 1 to 10 µM.

Consider `O=C(CNc1ccccc1)N/N=C/c1ccncc1` [Example 42, Phenylamino-acetic acid [1-pyridin-4-yl-meth-(E)-ylidene]-hydrazide], for which the Ki in test [1] fell in the range of 0.1 to 1 µM.

With `O=C(CNc1ccc(F)cc1)N/N=C/c1c(Cl)cncc1Cl` [Example 14, (4-Fluoro-phenylamino)-acetic acid [1-(3,5-dichloro-pyridin-4-yl)-meth-(E)-ylidene]-hydrazide], in test [1], the Ki was 1 to 10 µM.

For the molecule `CS(=O)(=O)Nc1cccc(NCC(=O)N/N=C/c2c(Cl)cncc2Cl)c1` [Example 24], the inhibition constant Ki in test [1] lay in the range of 1 to 10 µM.

Turning to `CC(Nc1cccc(Oc2ccccc2)c1)C(=O)N/N=C/c1c(Cl)cncc1Cl` (stereo not drawn) [Example 98, 2-(3-Phenoxy-phenylamino)-propionic acid [1-(3,5-dichloro-pyridin-4-yl)-meth-(E)-ylidene]-hydrazide], the inhibition constant Ki in test [1] was greater than 10 µM.

Regarding `CS(=O)(=O)c1cccc(NCC(=O)N/N=C/c2c(Cl)cncc2Cl)c1` [Example 23, (3-Methanesulfonyl-phenylamino)-acetic acid [1-(3,5-dichloro-pyridin-4-yl)-meth-(E)-ylidene]-hydrazide], in test [1], the Ki was 1 to 10 µM.

Take `O=C(CNc1ccc(I)cc1)N/N=C/c1ccncc1` [Example 71, (4-Iodo-phenylamino)-acetic acid [1-pyridin-4-yl-meth-(E)-ylidene]-hydrazide]: the Ki in test [1] is greater than 10 µM.

On to `O=C(CNc1ccc(F)cc1)N/N=C/c1ccncc1` [Example 53, (4-fluoro-phenylamino)-acetic acid [1-pyridin-4-yl-meth-(E)-ylidene]-hydrazide], for which the Ki in test [1] lay within 1 to 10 µM.
